{"source": "patent US12139471B2", "about": "“NLRP3 inflammasome inhibitors” (Novartis AG, priority 2019, dated 2024)", "note": "Structures can show the parent of a compound that is named as a salt."}
{"target": "T1, NLRP3 inflammasome (Homo sapiens, UniProt Q96P20)", "T1 construct": "host or cells: THP-1 cells, PMA-differentiated", "T1 sequence (Q96P20 whole entry)": "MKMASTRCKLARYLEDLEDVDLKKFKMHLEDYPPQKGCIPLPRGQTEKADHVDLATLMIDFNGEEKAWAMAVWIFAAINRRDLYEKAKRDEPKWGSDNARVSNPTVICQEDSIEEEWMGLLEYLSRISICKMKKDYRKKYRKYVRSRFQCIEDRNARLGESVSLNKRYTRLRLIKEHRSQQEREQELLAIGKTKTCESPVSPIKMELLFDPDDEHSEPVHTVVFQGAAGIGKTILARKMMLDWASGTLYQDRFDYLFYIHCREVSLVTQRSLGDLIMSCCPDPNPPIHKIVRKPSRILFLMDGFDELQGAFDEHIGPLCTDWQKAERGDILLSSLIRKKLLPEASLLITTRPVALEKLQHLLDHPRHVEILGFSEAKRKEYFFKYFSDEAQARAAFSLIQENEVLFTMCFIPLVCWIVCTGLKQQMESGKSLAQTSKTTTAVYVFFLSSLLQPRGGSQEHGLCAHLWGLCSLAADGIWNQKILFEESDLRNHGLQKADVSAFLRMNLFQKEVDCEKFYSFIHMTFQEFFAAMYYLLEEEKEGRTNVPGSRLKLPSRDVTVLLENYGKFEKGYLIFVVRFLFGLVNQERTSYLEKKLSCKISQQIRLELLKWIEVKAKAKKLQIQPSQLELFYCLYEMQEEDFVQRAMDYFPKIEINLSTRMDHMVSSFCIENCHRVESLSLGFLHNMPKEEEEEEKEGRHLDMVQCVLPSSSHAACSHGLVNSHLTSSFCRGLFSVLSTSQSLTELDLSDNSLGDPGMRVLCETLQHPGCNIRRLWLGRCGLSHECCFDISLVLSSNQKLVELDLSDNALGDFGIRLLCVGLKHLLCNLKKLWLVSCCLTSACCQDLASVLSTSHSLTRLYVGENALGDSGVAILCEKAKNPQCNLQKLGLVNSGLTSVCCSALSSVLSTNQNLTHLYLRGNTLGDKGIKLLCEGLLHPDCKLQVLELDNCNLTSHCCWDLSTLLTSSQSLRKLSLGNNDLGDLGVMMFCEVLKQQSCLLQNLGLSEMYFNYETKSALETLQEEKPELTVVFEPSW", "test": "IL-1β secretion assay (nigericin-activated, PMA-differentiated THP-1 cells, HTRF)", "assay_type": "cell-based", "settings": "IL-1β IC50, PMA-differentiated THP-1 cells; compound 1 hour, then 15 μM nigericin, 3 hours; IL-1β by HTRF", "protocol": "(§1) 10 μL supernatant was removed, and IL-1β levels were monitored using an HTRF assay (CisBio, #62IL1PEC) according to manufacturers' instructions. Viability and pyroptosis was monitored with the addition of PrestoBlue cell viability reagent (Life Technologies, #A13261) directly to the cell culture plate.\n(§2) IC50 values were calculated from the plot of percentage of inhibition versus the inhibitor concentration by a logistics fit according to: y=A2+(A1−A2)/(1+(x/IC50)^p) where y is the %-inhibition at the inhibitor concentration, x. A1 is the lowest inhibition value, i.e. 0%, and A2 the maximum inhibition value, i.e. 100%. The exponent, p, is the Hill coefficient. The curve fitting was conducted with an internally developed software suite.\n(§3) NLRP3-dependent IL-1β secretion was stimulated in PMA-differentiated THP-1 cells by the addition of nigericin, and cytokines were measured in the […] after 3 hours. As discussed above, activation of the NLRP3 inflammasome requires both an NF-kB-dependent priming step and the addition of a NLRP3 activator.", "units": {"IC50": "nM"}}
{"smiles": "Cc1cc(C(F)(F)F)cc(O)c1-c1ccc(NC2CCC3CCC2N3C)nn1", "note": "(single isomer, unassigned) [Ex 85b]", "IC50": 1.3}
{"smiles": "Cc1cc(C(F)(F)F)cc(O)c1-c1ccc(NC2CCC3CCC2N3CCO)nn1", "note": "(single isomer, unassigned) [Ex 86b]", "IC50": 1.8}
{"target": "T1, NLRP3 inflammasome", "test": "IL-1β secretion assay (nigericin-activated, PMA-differentiated THP-1 cells, HTRF)", "assay_type": "cell-based", "settings": "PMA-differentiated THP-1 cells; compound 1 hour, then 15 μM nigericin, 3 hours; IL-1β by HTRF; read-out: IL-1β IC50", "protocol": "as §1, §2, §3", "units": {"IC50": "nM"}}
{"smiles": "Cc1cc(C(F)(F)F)cc(O)c1-c1ccc(NCC2COCCN2C)nn1", "note": "(racemic) [Ex 77, (rac)-3-Methyl-2-(6-(((4-methylmorpholin-3-yl)methyl)amino)pyridazin-3-yl)-5-(trifluoromethyl)phenol]", "IC50": 61.9}
{"smiles": "Cc1cc(C(F)(F)F)cc(O)c1-c1ccc(N[C@@H]2CCC[C@H]2O)nn1", "note": "(relative stereo) [Ex 24, (trans)-2-(6-((2-Hydroxycyclopentyl)amino)pyridazin-3-yl)-3-methyl-5-(trifluoromethyl)phenol]", "IC50": 120}
{"smiles": "Cc1cc(C(F)(F)F)cc(O)c1-c1ccc(N[C@@H]2CCCN3CCC[C@H]23)nn1", "note": "(single isomer, unassigned) [Ex 83a]", "IC50": 0.8}
{"smiles": "Cc1cc(C(F)(F)F)cc(O)c1-c1ccc(N[C@H]2CCCN3CCC[C@@H]23)nn1", "note": "(single isomer, unassigned) [Ex 83b]", "IC50": 69.4}
{"smiles": "Cc1cc(C(F)(F)F)cc(O)c1-c1ccc(NC[C@H]2CCCCN2CCO)nn1", "note": "(single isomer, unassigned) [Ex 84a]", "IC50": 42.5}
{"smiles": "Cc1cc(C(F)(F)F)cc(O)c1-c1ccc(NC[C@@H]2CCCCN2CCO)nn1", "note": "(single isomer, unassigned) [Ex 84b]", "IC50": 53.3}
{"smiles": "Cc1cc(C(F)(F)F)cc(O)c1-c1ccc(NC2CCC3CCC2N3C)nn1", "note": "(single isomer, unassigned) [Ex 85a]", "IC50": 148}
{"smiles": "Cc1cc(C(F)(F)F)cc(O)c1-c1ccc(NC2CCC3CCC2N3CCO)nn1", "note": "(single isomer, unassigned) [Ex 86a]", "IC50": 175}
{"smiles": "Cc1cc(C(F)(F)F)cc(O)c1-c1ccc(NC[C@](C)(O)CO)nn1", "note": "(single isomer, unassigned) [Ex 88a]", "IC50": 62.3}
{"smiles": "Cc1cc(C(F)(F)F)cc(O)c1-c1ccc(NC[C@@](C)(O)CO)nn1", "note": "(single isomer, unassigned) [Ex 88b]", "IC50": 60.5}
{"smiles": "Cc1cc(C(F)(F)F)cc(O)c1-c1ccc(N[C@H]2CC[C@H](O)[C@@H]2O)nn1", "note": "(single isomer, unassigned) [Ex 89a]", "IC50": 59.7}
{"smiles": "Cc1cc(C(F)(F)F)cc(O)c1-c1ccc(N[C@@H]2CC[C@@H](O)[C@H]2O)nn1", "note": "(single isomer, unassigned) [Ex 89b]", "IC50": 182}
{"smiles": "Cc1cc(C(F)(F)F)cc(O)c1-c1ccc(NC[C@@H](O)C(C)C)nn1", "note": "(single isomer, unassigned) [Ex 90a]", "IC50": 64.2}
{"smiles": "Cc1cc(C(F)(F)F)cc(O)c1-c1ccc(NC[C@H](O)C(C)C)nn1", "note": "(single isomer, unassigned) [Ex 90b]", "IC50": 115}
{"smiles": "Cc1cc(C(F)(F)F)cc(O)c1-c1ccc(N[C@H]2C[C@@](C)(O)C2)nn1", "note": "[Ex 2, 2-(6-(((cis)-3-Hydroxy-3-methylcyclobutyl)amino)pyridazin-3-yl)-3-methyl-5-(trifluoromethyl)phenol]", "IC50": 10.2}
{"smiles": "Cc1cc(C(F)(F)F)cc(O)c1-c1ccc(N[C@@H]2CCC[C@H](O)C2)nn1", "note": "[Ex 3, 2-(6-(((1R,3S)-3-Hydroxycyclohexyl)amino)pyridazin-3-yl)-3-methyl-5-(trifluoromethyl)phenol]", "IC50": 25.5}
{"smiles": "CCN1CCC[C@H]1CNc1ccc(-c2c(C)cc(C(F)(F)F)cc2O)nn1", "note": "[Ex 8, (S)-2-(6-(((1-Ethylpyrrolidin-2-yl)methyl)amino)pyridazin-3-yl)-3-methyl-5-(trifluoromethyl)phenol]", "IC50": 24.1}
{"smiles": "Cc1cc(C(F)(F)F)cc(O)c1-c1ccc(NCC(O)(C(F)(F)F)C(F)(F)F)nn1", "note": "[Ex 10, 3-Methyl-2-(6((3,3,3-trifluoro-2-hydroxy-2-(trifluoromethyl)propyl)amino)pyridazin-3-yl)-5-(trifluoromethyl)phenol]", "IC50": 349}
{"smiles": "Cc1cc(C(F)(F)F)cc(O)c1-c1ccc(NC[C@H]2CCCN2)nn1", "note": "[Ex 14, (R)-3-Methyl-2-(6-((pyrrolidin-2-ylmethyl)amino)pyridazin-3-yl)-5-(trifluoromethyl)phenol]", "IC50": 85.7}
{"smiles": "Cc1cc(C(F)(F)F)cc(O)c1-c1ccc(NCC(C)(C)O)nn1", "note": "[Ex 15, 2-(6-((2-Hydroxy-2-methylpropyl)amino)pyridazin-3-yl)-3-methyl-5-(trifluoromethyl)phenol]", "IC50": 85.9}
{"smiles": "Cc1cc(C(F)(F)F)cc(O)c1-c1ccc(NCC(C)(C)N(C)C)nn1", "note": "[Ex 16, 2-(6-((2-(Dimethylamino)-2-methylpropyl)amino)pyridazin-3-yl)-3-methyl-5-(trifluoromethyl)phenol]", "IC50": 36.3}
{"smiles": "Cc1cc(C(F)(F)F)cc(O)c1-c1ccc(OCC(C)(C)O)nn1", "note": "[Ex 19, 2-(6-(2-Hydroxy-2-methylpropoxy)pyridazin-3-yl)-3-methyl-5-(trifluoromethyl)phenol]", "IC50": 93.6}
{"smiles": "Cc1cc(C(F)(F)F)cc(O)c1-c1ccc(NC[C@H]2CCCCN2)nn1", "note": "[Ex 20, (R)-3-Methyl-2-(6-((piperidin-2-ylmethyl)amino)pyridazin-3-yl)-5-(trifluoromethyl)phenol]", "IC50": 82.3}
{"smiles": "Cc1cc(C(F)(F)F)cc(O)c1-c1ccc(NC[C@@H]2CCCCN2)nn1", "note": "[Ex 21, (S)-3-Methyl-2-(6-((piperidin-2-ylmethyl)amino)pyridazin-3-yl)-5-(trifluoromethyl)phenol]", "IC50": 48.4}
{"smiles": "Cc1cc(C(F)(F)F)cc(O)c1-c1ccc(NC[C@@H]2CC(F)(F)CN2)nn1", "note": "[Ex 22, (S)-2-(6-(((4,4-Difluoropyrrolidin-2-yl)methyl)amino)pyridazin-3-yl)-3-methyl-5-(trifluoromethyl)phenol]", "IC50": 80.7}
{"smiles": "Cc1cc(C(F)(F)F)cc(O)c1-c1ccc(NC[C@H]2CC(F)(F)CN2)nn1", "note": "[Ex 23, (R)-2-(6-(((4,4-Difluoropyrrolidin-2-yl)methyl)amino)pyridazin-3-yl)-3-methyl-5-(trifluoromethyl)phenol]", "IC50": 93.4}
{"smiles": "Cc1cc(C(F)(F)F)cc(O)c1-c1cc(C(F)(F)F)c(NCCO)nn1", "note": "[Ex 26, 2-(6-((2-Hydroxyethyl)amino)-5-(trifluoromethyl)pyridazin-3-yl)-3-methyl-5-(trifluoromethyl)phenol]", "IC50": 165}
{"smiles": "Cc1cc(C(F)(F)F)cc(O)c1-c1ccc(NCc2ccccn2)nn1", "note": "[Ex 28, 3-Methyl-2-(6-((pyridin-2-ylmethyl)amino)pyridazin-3-yl)-5-(trifluoromethyl)phenol]", "IC50": 288}
{"smiles": "Cc1cc(C(F)(F)F)cc(O)c1-c1ccc(NCC(C)(C)N)nn1", "note": "[Ex 29, 2-(6-((2-Amino-2-methylpropyl)amino)pyridazin-3-yl)-3-methyl-5-(trifluoromethyl)phenol]", "IC50": 169}
{"smiles": "CC(C)(O)CNc1ccc(-c2c(O)cc(C(F)(F)F)cc2Cl)nn1", "note": "[Ex 30, 3-Chloro-2-(6-((2-hydroxy-2-methylpropyl)amino)pyridazin-3-yl)-5-(trifluoromethyl)phenol]", "IC50": 214}
{"smiles": "Oc1cc(C(F)(F)F)cc(Cl)c1-c1ccc(N[C@H]2C[C@@H](O)C2)nn1", "note": "[Ex 31, 3-Chloro-2-(6-((cis-3-hydroxycyclobutyl)amino)pyridazin-3-yl)-5-(trifluoromethyl)phenol]", "IC50": 167}
{"smiles": "Oc1cc(C(F)(F)F)cc(Cl)c1-c1ccc(N[C@H]2C[C@H](O)C2)nn1", "note": "[Ex 32, 3-Chloro-2-(6-((trans-3-hydroxycyclobutyl)amino)pyridazin-3-yl)-5-(trifluoromethyl)phenol]", "IC50": 218}
{"smiles": "Cc1ncccc1CNc1ccc(-c2c(O)cc(C(F)(F)F)cc2Cl)nn1", "note": "[Ex 34, 3-Chloro-2-(6-(((2-methylpyridin-3-yl)methyl)amino)pyridazin-3-yl)-5-(trifluoromethyl)phenol]", "IC50": 496}
{"smiles": "Cc1ncccc1CNc1ccc(-c2c(O)cc(Cl)cc2C(F)(F)F)nn1", "note": "[Ex 35, 5-Chloro-2-(6-(((2-methylpyridin-3-yl)methyl)amino)pyridazin-3-yl)-3-(trifluoromethyl)phenol]", "IC50": 243}
{"smiles": "OCCNc1ccc(-c2c(O)cc(C(F)(F)F)cc2Cl)nn1", "note": "[Ex 37, 3-Chloro-2-(6-((2-hydroxyethyl)amino)pyridazin-3-yl)-5-(trifluoromethyl)phenol]", "IC50": 381}
{"smiles": "Cc1cc(C(F)(F)F)cc(O)c1-c1ccc(Nc2cncnc2)nn1", "note": "[Ex 43, 3-Methyl-2-(6-(pyrimidin-5-ylamino)pyridazin-3-yl)-5-(trifluoromethyl)phenol]", "IC50": 281}
{"smiles": "Cc1cc(C(F)(F)F)cc(O)c1-c1ccc(NC2(C)CCCN(C)C2)nn1", "note": "(stereo not drawn) [Ex 52, 2-(6-((1,3-Dimethylpiperidin-3-yl)amino)pyridazin-3-yl)-3-methyl-5-(trifluoromethyl)phenol TFA-salt]", "IC50": 186}
{"smiles": "Cc1cc(-c2c(C)cc(C(F)(F)F)cc2O)nnc1N[C@H]1C[C@@](C)(O)C1", "note": "[Ex 54, 2-(6-(((cis)-3-Hydroxy-3-methylcyclobutyl)amino)-5-methylpyridazin-3-yl)-3-methyl-5-(trifluoromethyl)phenol]", "IC50": 11.8}
{"smiles": "Cc1cc(N[C@H]2C[C@@](C)(O)C2)nnc1-c1ccc(C(F)(F)F)cc1O", "note": "[Ex 55, 2-(6-(((cis)-3-Hydroxy-3-methylcyclobutyl)amino)-4-methylpyridazin-3-yl)-5-(trifluoromethyl)phenol]", "IC50": 45.8}
{"smiles": "Cc1cc(C(F)(F)F)cc(O)c1-c1cc(C(F)(F)F)c(N[C@H]2C[C@@](C)(O)C2)nn1", "note": "[Ex 56, 2-(6-(((cis)-3-Hydroxy-3-methylcyclobutyl)amino)-5-(trifluoromethyl)pyridazin-3-yl)-3-methyl-5-(trifluoromethyl)phenol]", "IC50": 8.3}
